Patent US20250296953A1, “3,4-THIAZOLO-STEROIDS AND METHODS OF MAKING AND USING THE SAME” (Arkansas State University - Jonesboro, priority 2018, published 2025)

What was measured:
LOX IMVI = test: Melanoma cytotoxicity assay (resazurin); format: cell-based
Method in brief: (§1)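 Following 24 h of compound treatment (triplicates, 37° C, 5% CO2) of cells seeded one day earlier at about 4000 per well, viability was gauged with resazurin. IC50 values derive from sigmoidal concentration–viability curves.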

SK-MEL-25 = test: Melanoma cytotoxicity assay (resazurin); format: cell-based
Method in brief: as §1

SK-MEL-28 = test: Melanoma cytotoxicity assay (resazurin); format: cell-based
Method in brief: as §1

SK-MEL-5 = test: Melanoma cytotoxicity assay (resazurin); format: cell-based; conditions: human, 24 h
Method in brief: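 Viability read by resazurin fluorescence (ex 544, em 590 nm) after 6 h, following 24 h compound exposure of cells plated 24 h earlier (~4000/well). Triplicate means, minus medium blank, divided by DMSO control; IC50 derived from sigmoidal dose-response curves.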

HFF-1 = test: Cytotoxicity assay (resazurin); format: cell-based; conditions: Homo sapiens; HFF-1 cells; read-out: HFF-1 (IC50)
MALME-3M = test: Melanoma cytotoxicity assay (resazurin); format: cell-based; conditions: human, 24 h
Method: On day 1, the cell line trypsinized and centrifuged to form cell pellet. The pellet was diluted in media, then counted using Countess automated cell counter. Approximately 4000 cells (198 uL) per well plated in […]. A control well of 200 uL growth media was also prepared. Wells closest to plate perimeter were filled with 200 uL PBS to prevent inner well evaporation. The 96 well plates are incubated in 37° C. incubator at 5% CO2 for 24 hours.
On day 2, compounds were added (in triplicate) along with DMSO/Dacarbazine controls (2 uL) added to bring wells to volume of 200 μL. The 96 well plates are incubated in 37° C. incubator at 5% CO2 for 24 hours.
On day 3, 40 μL of 0.15 mg/ml reszurin solution added to wells. Samples were placed in a 37° C. incubator at 5% CO2 for 6 hours. Excitation and emission for fluorescence measured at 544 nm and 590 nm using BMG Labtech Fluostar Optima plate reader
Percent viability determined by taking average of each triplicate well fluorescence and subtracting GM well reading to remove the background signal. This difference is then divided by the average of the negative control (DMSO) wells to determine percent viability.
IC50s were determined by using cereal dilution of compound to determine viability. Viabilities and concentration of cells are analyzed in Graphpad Prism by creating sigmoidal curve graph, which will determine the IC50 concentration.
We analyzed the ability of the thiazole-androstane derivatives to inhibit growth in various melanoma cell lines. The growth inhibition against melanoma cell lines of various compound is shown below in Tables 19 and 20. Inhibition results are reported as the IC50 concentration in μM of the indicated compound or as the percent viability […] of the indicated compound. NA=not available.

[1] = test system: 60 different human tumor cell lines; test: NCI Development Therapeutics Program 60 cell line screen, one dose; format: cell-based
NCI-H522 (NSCLC) = test: NCI 60 one dose screen; format: cell-based, human; conditions: Non-small Cell Lung Cancer
HCT-15 (Colon Cancer) = test: NCI 60 one dose screen; format: cell-based, human
SF-295 = test: NCI 60 one dose screen; format: cell-based, human
SF-539 = test: NCI 60 one dose screen; format: cell-based, human

C[C@]12CC[C@H]3[C@@H](CC=C4c5sc(Nc6ccc(F)cc6)nc5CC[C@@]43C)[C@@H]1CC[C@@H]2O [IIIa.12, (1S,2R,13R,14S,17S,18S)-7-(4-fluoroanilino)-2,18-dimethyl-8-thia-6-azapentacyclo[11.7.0.02,10.05,9.014,18]icosa-5(9),6,10-trien-17-ol]
IC50 (LOX IMVI; Homo sapiens, LOX IMVI melanoma cells): 5.2 µM
LOX-IMVI (% viability) (LOX IMVI; human, 24 h): 12%
IC50 (SK-MEL-25; Homo sapiens, SK-MEL-25 melanoma cells (head prints SK-25), read-out: SK-25 IC50): 7 µM
SK-MEL-25 (% viability) (SK-MEL-25; human, 24 h): 7.33%
IC50 (SK-MEL-28; Homo sapiens, SK-MEL-28 melanoma cells): 10 µM
SK-MEL-28 (% viability) (SK-MEL-28; human, 24 h): 2.35%
SK-MEL-5 (% viability) (SK-MEL-5): 3.66%
IC50 (HFF-1): 24 µM
MALME-3M (% viability) (MALME-3M): 35.97%

(1S,2R,13R,14S,18S)-7-(3-fluorophenyl)-2,18-dimethyl-8-thia-6-azapentacyclo[11.7.0.02,10.05,9.014,18]icosa-5(9),7,10-trien-17-one [II.12]
Growth Percent ([1]; Breast Cancer, BT-549): 23.16%
Growth Percent ([1]; Breast Cancer, HS 578T): 27.43%
Growth Percent ([1]; Breast Cancer, MCF7): 10.76%
Growth Percent ([1]; Breast Cancer, MDA-MB-231/ATCC): 62.02%
Growth Percent ([1]; Breast Cancer, MDA-MB-468): 29.20%
Growth Percent ([1]; Breast Cancer, T-47D): 3.07%
Growth Percent ([1]; CNS Cancer, SF-268): 52.39%
Growth Percent ([1]; CNS Cancer, SNB-19): 60.01%
Growth Percent ([1]; CNS Cancer, SNB-75): 44.61%
Growth Percent ([1]; CNS Cancer, U251): 18.77%
Growth Percent ([1]; Colon Cancer, COLO 205): 44.55%
Growth Percent ([1]; Colon Cancer, HCC-2998): 79.47%
Growth Percent ([1]; Colon Cancer, HCT-116): 0.51%
Growth Percent ([1]; Colon Cancer, HT29): 5.21%
Growth Percent ([1]; Colon Cancer, KM12): 46.48%
Growth Percent ([1]; Colon Cancer, SW-620): 3.81%
Growth Percent ([1]; Leukemia, CCRF-CEM): 15.82%
Growth Percent ([1]; Leukemia, HL-60(TB)): 34.18%
Growth Percent ([1]; Leukemia, K-562): 7.01%
Growth Percent ([1]; Leukemia, MOLT-4): 5.82%
Growth Percent ([1]; Leukemia, RPMI-8226): −2.88%
Growth Percent ([1]; Leukemia, SR): 5.11%
Growth Percent ([1]; Melanoma, LOX IMVI): 1.34%
Growth Percent ([1]; Melanoma, M14): 57.14%
Growth Percent ([1]; Melanoma, MALME-3M): 37.62%
Growth Percent ([1]; Melanoma, MDA-MB-435): 49.24%
Growth Percent ([1]; Melanoma, SK-MEL-2): 32.06%
Growth Percent ([1]; Melanoma, SK-MEL-5): 61.51%
Growth Percent ([1]; Melanoma, SK-MEL-28): 48.00%
Growth Percent ([1]; Melanoma, UACC-62): 34.85%
Growth Percent ([1]; Melanoma, UACC-257): 77.45%
Growth Percent ([1]; Non-small Cell Lung Cancer, A549/ATCC): 55.01%
Growth Percent ([1]; Non-small Cell Lung Cancer, EKVX): 68.33%
Growth Percent ([1]; Non-small Cell Lung Cancer, HOP-62): 50.54%
Growth Percent ([1]; Non-small Cell Lung Cancer, HOP-92): 74.28%
Growth Percent ([1]; Non-small Cell Lung Cancer, NCI-H23): 62.70%
Growth Percent ([1]; Non-small Cell Lung Cancer, NCI-H226): 65.84%
Growth Percent ([1]; Non-small Cell Lung Cancer, NCI-H322M): 69.34%
Growth Percent ([1]; Non-small Cell Lung Cancer, NCI-H460): 53.88%
Growth Percent ([1]; Ovarian Cancer, IGROV1): 0.60%
Growth Percent ([1]; Ovarian Cancer, NCI/ADR-RES): 68.33%
Growth Percent ([1]; Ovarian Cancer, OVCAR-3): 7.89%
Growth Percent ([1]; Ovarian Cancer, OVCAR-4): 65.10%
Growth Percent ([1]; Ovarian Cancer, OVCAR-5): 87.24%
Growth Percent ([1]; Ovarian Cancer, OVCAR-8): 28.53%
Growth Percent ([1]; Ovarian Cancer, SK-OV-3): 17.92%
Growth Percent ([1]; Prostate Cancer, DU-145): 22.88%
Growth Percent ([1]; Prostate Cancer, PC-3): 35.02%
Growth Percent ([1]; Renal Cancer, 786-0): −10.07%
Growth Percent ([1]; Renal Cancer, ACHN): 11.90%
Growth Percent ([1]; Renal Cancer, CAKI-1): 36.88%
Growth Percent ([1]; Renal Cancer, RXF 393): −22.47%
Growth Percent ([1]; Renal Cancer, SN12C): 42.89%
Growth Percent ([1]; Renal Cancer, TK-10): 24.03%
Growth Percent ([1]; Renal Cancer, UO-31): 1.08%
Growth Percent (NCI-H522 (NSCLC)): −36.55%
Growth Percent (HCT-15 (Colon Cancer)): −38.17%
mean growth percent (SF-295; SF-295 (CNS cancer panel), 10 μM): −18.91%
Growth Percent (SF-295; one dose, CNS Cancer, SF-295): −18.91%
mean growth percent (SF-539; SF-539 (CNS cancer panel), 10 μM): −33.43%
Growth Percent (SF-539; one dose, CNS Cancer, SF-539): −33.43%
